Results reported in publication PMC11077371, “Ciliogenesis-associated Kinase 1 Promotes Breast Cancer Cell Proliferation and Chemoresistance via Phosphorylating ERK1” (International Journal of Biological Sciences, 2024).
pKd: −log10 of the molar value.

Molecular target: T1, CILK1 (Homo sapiens, UniProt Q9UPZ9)
T1 construct: purchased protein (Abcam ab101774)
T1 sequence (Q9UPZ9 1-632): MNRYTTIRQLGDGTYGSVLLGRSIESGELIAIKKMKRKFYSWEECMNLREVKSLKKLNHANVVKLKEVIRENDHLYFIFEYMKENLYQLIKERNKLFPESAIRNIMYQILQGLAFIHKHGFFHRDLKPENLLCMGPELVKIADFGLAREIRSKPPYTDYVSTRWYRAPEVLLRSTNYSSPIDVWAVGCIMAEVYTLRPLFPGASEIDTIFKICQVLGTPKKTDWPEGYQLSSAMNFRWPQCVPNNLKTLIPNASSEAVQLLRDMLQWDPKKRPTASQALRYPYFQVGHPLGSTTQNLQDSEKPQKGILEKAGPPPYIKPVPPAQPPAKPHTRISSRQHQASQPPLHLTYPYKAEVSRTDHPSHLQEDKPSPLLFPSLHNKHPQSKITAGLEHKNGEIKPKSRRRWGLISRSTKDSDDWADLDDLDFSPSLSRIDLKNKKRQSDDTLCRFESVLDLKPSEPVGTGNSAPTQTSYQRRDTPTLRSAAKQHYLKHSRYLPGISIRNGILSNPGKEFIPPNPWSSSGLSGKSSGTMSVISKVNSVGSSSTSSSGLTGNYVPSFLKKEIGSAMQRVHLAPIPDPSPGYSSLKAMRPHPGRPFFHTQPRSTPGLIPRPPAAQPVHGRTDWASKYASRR
Test: surface plasmon resonance, […] Langmuir fit
Type: binding
Conditions: 3D Dextran chip; 1.5625-25 μM analyte

Q: With `CCc1ccc2nc(Nc3nc(C)c(Cc4ccc(C)cc4)c(=O)[nH]3)nc(C)c2c1` [CILK1-C30] as the compound, how does the pKd read?
A: The pKd was 6.97.
